Like-named read-outs stand apart in the source and are kept apart here.
Tests used:
tulip = experiment: Tulip bulbs in peat watered with working solution: height, stem diameter, weights, root length, flowering, vigor (Example 1); assay type: in vivo; details: 80 mg/L, benzothiadiazole salt 30 mg/L
Experimental: Control plants were watered with distilled water. During the conducted experiment, plant height was measured before each treatment. Flowering length and plant vigor were also studied. After 20 days from the end of the last treatment, the fresh and dry weight of aboveground parts and roots, and root length were assessed.

lettuce [1] = details: 3-chlorosalicylate 100 mg/L double application, benzothiadiazole salt 50 mg/L single application
Experimental: The purpose of the study was to determine the effect of foliar spraying with test solutions on lettuce plants (Lactuca sativa L. ‘Zeralda’) under abiotic stress conditions—low temperature. After 7 and 14 days after transplanting the plants to a permanent place, spraying of the plants was carried out. […] After another 7 days, low temperature stress was induced—plants were grown in three glass chambers with a day temperature of 22° C. and night temperatures of 4, 12 and 20° C. until harvest.

lettuce [2] = system: lettuce
Source text: The purpose of the study was to determine the effect of foliar spraying with test solutions on lettuce (Lactuca sativa L. ‘Zeralda’) plants. The plants were sprayed 7 and 14 days after transplanting to a permanent site. […] After another 7 days, drought stress was induced (plants in the selected combinations were not watered until symptoms of leaf wilting appeared), followed by proper watering of the plants again. Control plants were watered in turn to a constant weight. After 3 days after re-watering, chlorophyll fluorescence was measured (OJIP test, methodology described, among others, in Kalaji H. M., 2011. Impact of abiotic stress factors on chlorophyll fluorescence in plants of selected barley cultivars Hordeum vulgare L. SGGW Publishing House, Warsaw [https://badanieroslin.pl/wp-content/uploads/2018/11/Oddzialywanie-abiotycznych-czynnikow. . . ..pdf]) and the condition of the plants was assessed.
The measurement was carried out after inducing drought stress, followed by re-watering the plants to a constant weight. […] This parameter is lowered by stresses.

bell pepper = experiment: Bell pepper seedlings in pots sprayed: height, fresh and dry weight (Example 5); assay type: in vivo
Experimental: Pepper seedlings were planted into pots with peat substrate (P9 pots having 0,5 l). Pots were placed in greenhouse and cultivated for a 1 month. […] Plants treated with water only were the untreated control. During the course of the experiment, the height of the plants was measured, and at the end the fresh and dry weight of the aboveground part was evaluated.

[3] = system: apple trees (M9 rootstocks); details: 4 sprays at 14-day intervals; 3-chlorosalicylate 100 mg/L, benzothiadiazole salt 25 mg/L
Source text: Flowers were counted during the experiment, and the number of shoots and leaves in the fall.

[4] = Table 2, 20 days after last treatment
[5] = Table 3 (title: tulip bulbs / root system)
[6] = Control (watered), double application, 3-chlorosalicylate 100 mg/L, benzothiadiazole salt 50 mg/L
[7] = Control (watered), single application, 50 mg/L
[8] = Drought, double application, 3-chlorosalicylate 100 mg/L, benzothiadiazole salt 50 mg/L
[9] = Drought, single application, 50 mg/L
[10] = double application, 3-chlorosalicylate 100 mg/L, benzothiadiazole salt 50 mg/L
[11] = 3-chlorosalicylate 80 mg/L, benzothiadiazole salt 30 mg/L

SMILES: C[N+](C)(C)CCO.O=C([O-])c1cccc2nnsc12
- Average stem diameter at the end of the experiment 20 days after the 4th treatment (tulip): 8.3 b mm
- Flowering length (tulip): 23 days
- Root length (tulip): 84.7 b mm
- Vigor [on a scale from 1 to 5] (tulip; 1 is a laying plant, 5 is a stiff plant): 4.9 b
- Average dry weight of the above-ground part (tulip; [4]): 44.1 b g
- Average fresh weight of the above-ground part (tulip; [4]): 435.7 b g
- Average dry weight of the above-ground part (tulip; [5]): 5.7 b g
- Average fresh weight of the above-ground part (tulip; [5]): 61.0 b g
- Average plant height, initial height, first treatment (tulip; before 1st watering): 46.4 a mm
- Average plant height, second treatment (tulip; before 2nd watering): 133.6 b mm
- Average plant height, third treatment (tulip; before 3rd watering): 271.2 b mm
- Average plant height, fourth treatment (tulip; before 4th watering): 375.6 b mm
- Average plant height, 20 days after the 4th treatment (tulip; end of experiment): 518.0 b mm
- Head weight, 4° C. (lettuce [1]; night temperature 4° C.): 47.6 b g/plant
- Head weight, 12° C. (lettuce [1]; night temperature 12° C.): 54.9 b c g/plant
- Head weight, 20° C. (lettuce [1]; night temperature 20° C.): 65.1 b g/plant
- ABS/RC (lettuce [2]; [6]): 1.46 b
- DIo/RC (lettuce [2]; [6]): 0.28 b
- ETo/RC (lettuce [2]; [6]): 0.93 ab
- F0 (lettuce [2]; [6]): 7100 b
- FM (lettuce [2]; [6]): 45265 b
- FM/F0 (lettuce [2]; [6]): 6.52 ab
- Fv (lettuce [2]; [6]): 38164 b
- Fv/F0 (lettuce [2]; [6]): 5.52 abc
- Fv/FM (lettuce [2]; [6]): 0.85 abc
- Pi_Abs (PSII functioning index calculated on the basis of energy absorption) (lettuce [2]; [6]): 10.33 ab
- TRo/RC (lettuce [2]; [6]): 1.74 b
- ABS/RC (lettuce [2]; [7]): 1.45 b
- DIo/RC (lettuce [2]; [7]): 0.28 b
- ETo/RC (lettuce [2]; [7]): 0.87 ab
- F0 (lettuce [2]; [7]): 6762 b
- FM (lettuce [2]; [7]): 41874 b
- FM/F0 (lettuce [2]; [7]): 6.19 abc
- Fv (lettuce [2]; [7]): 35112 b
- Fv/F0 (lettuce [2]; [7]): 5.19 abc
- Fv/FM (lettuce [2]; [7]): 0.84 abc
- Pi_Abs (PSII functioning index calculated on the basis of energy absorption) (lettuce [2]; [7]): 4.47 a
- TRo/RC (lettuce [2]; [7]): 1.74 b
- ABS/RC (lettuce [2]; [8]): 1.14 a
- DIo/RC (lettuce [2]; [8]): 0.20 a
- ETo/RC (lettuce [2]; [8]): 0.84 ab
- F0 (lettuce [2]; [8]): 4965 a
- FM (lettuce [2]; [8]): 34715 a
- FM/F0 (lettuce [2]; [8]): 6.99 bc
- Fv (lettuce [2]; [8]): 29750 b
- Fv/F0 (lettuce [2]; [8]): 5.99 ab
- Fv/FM (lettuce [2]; [8]): 0.86 c
- Pi_Abs (PSII functioning index calculated on the basis of energy absorption) (lettuce [2]; [8]): 12.61 days
- TRo/RC (lettuce [2]; [8]): 1.34 a
- ABS/RC (lettuce [2]; [9]): 1.12 a
- DIo/RC (lettuce [2]; [9]): 0.24 a
- ETo/RC (lettuce [2]; [9]): 0.75 a
- F0 (lettuce [2]; [9]): 5675 a
- FM (lettuce [2]; [9]): 32147 a
- FM/F0 (lettuce [2]; [9]): 5.67 a
- Fv (lettuce [2]; [9]): 26472 a
- Fv/F0 (lettuce [2]; [9]): 4.67 a
- Fv/FM (lettuce [2]; [9]): 0.83 a
- Pi_Abs (PSII functioning index calculated on the basis of energy absorption) (lettuce [2]; [9]): 7.47 b
- TRo/RC (lettuce [2]; [9]): 1.36 a
- % dry matter (leaf), Average (lettuce [2]; [10]): 4.67 b %
- % dry matter (leaf), Drought (lettuce [2]; [10]): 3.61 a %
- % dry matter (leaf), Watered (lettuce [2]; [10]): 5.73 c %
- Head and root weight, Average (lettuce [2]; [10]): 69.4 a g/plant
- Head and root weight, Drought (lettuce [2]; [10]): 70.6 ab g/plant
- Head and root weight, Watered (lettuce [2]; [10]): 69.2 a g/plant
- Head weight, Average (lettuce [2]; [10]): 53.4 a g/plant
- Head weight, Drought (lettuce [2]; [10]): 51.6 ab g/plant
- Head weight, Watered (lettuce [2]; [10]): 51.6 b g/plant
- RWC (relative water content), Watered (lettuce [2]; [10]): 74.3 b %
- RWC, Average (lettuce [2]; [10]): 75.0 a %
- RWC, Drought (lettuce [2]; [10]): 64.0 a %
- % dry matter (leaf), Average (lettuce [2]; single application, 50 mg/L): 3.75 b %
- % dry matter (leaf), Drought (lettuce [2]; single application, 50 mg/L): 3.59 b %
- % dry matter (leaf), Watered (lettuce [2]; single application, 50 mg/L): 3.51 b %
- Head and root weight, Average (lettuce [2]; single application, 50 mg/L): 84.6 b g/plant
- Head and root weight, Drought (lettuce [2]; single application, 50 mg/L): 84.4 bc g/plant
- Head and root weight, Watered (lettuce [2]; single application, 50 mg/L): 85.2 c g/plant
- Head weight, Average (lettuce [2]; single application, 50 mg/L): 65.1 b g/plant
- Head weight, Drought (lettuce [2]; single application, 50 mg/L): 62.5 c g/plant
- Head weight, Watered (lettuce [2]; single application, 50 mg/L): 65.3 c g/plant
- RWC (relative water content), Watered (lettuce [2]; single application, 50 mg/L): 77.1 b %
- RWC, Average (lettuce [2]; single application, 50 mg/L): 74.5 a %
- RWC, Drought (lettuce [2]; single application, 50 mg/L): 71.5 ab %
- Average dry mass (bell pepper; 20 mg/L): 13.3 c g
- Average fresh mass (bell pepper; 20 mg/L): 94.6 c g
- Average plant height, initial height, before first treatment (bell pepper; 20 mg/L): 43.5 b mm
- Average plant height, second treatment (bell pepper; 20 mg/L): 150.8 b mm
- Average plant height, third treatment (bell pepper; 20 mg/L): 226.6 c mm
- Plant height increase (bell pepper; 20 mg/L): 183.1 c mm
- Average dry mass (bell pepper; [11]): 15.6 g·days
- Average fresh mass (bell pepper; [11]): 115.5 g·days
- Average plant height, initial height, before first treatment (bell pepper; [11]): 39.9 a mm
- Average plant height, second treatment (bell pepper; [11]): 142.9 a mm
- Average plant height, third treatment (bell pepper; [11]): 270.8 d mm
- Plant height increase (bell pepper; [11]): 230.9 d mm
- Average number of flowers per plant [3]: 31.1 b
- Average number of leaves per plant [3]: 47.1 b
- Average number of shoots per plant [3]: 6.5 b

Source: US20260041093A1, “Ionic Derivatives Of Aromatic Carboxylic Acid For Use As Plant Stimulants, Method For Stimulating Plants And Use Of These Derivatives For Manufacturing Compositions For Stimulating Plants” (FUNDACJA UNIWERSYTETU IM. ADAMA MICKIEWICZA W POZNANIU, priority 2022, published 2026)
